Converted amounts (≈) assume the structure as drawn. Where two headings read alike, the source gives them in different places.
Assays:
M. tuberculosis H37Rv = test: microbe, parasite or virus in culture; type: cell-based, Mycobacterium tuberculosis
[1] = mouse, microsomes
in vitro [2] = settings: mouse, microsomes
physchem = settings: pH 7.4, aqueous buffer, kinetic from dmso stock
in vitro [3] = settings: African green monkey
[4] = Mycobacterium tuberculosis, H37RV
[5] = MLM stability t1/2 without NADPH

Compound	MIC (M. tuberculosis H37Rv; [4]) [µM]	further results
CCCCS(=O)(=O)Nc1ccc2cnn(CCC)c2c1 [5a-4, N-(1-Propyl-1H-indazol-6-yl)butane-1-sulfonamide]	> 100	MLM stability clint [1]: 921 μl/mi/mg protein; half-life (in vitro [2]; MLM stability t1/2): 0.753 min; half-life (in vitro [2]; [5]): > 3060 min; solubility kinetic (physchem): 130 µM (≈ 38.4 µg/mL)
CCCCS(=O)(=O)Nc1ccc2cnn(C(C)C)c2c1 [5a-5, N-(1-Isoproply-1H-indazol-6-yl)butane-1-sulfonamide]	> 100	MLM stability clint [1]: 789 μl/mi/mg protein; half-life (in vitro [2]; MLM stability t1/2): 0.878 min; half-life (in vitro [2]; [5]): > 3060 min; solubility kinetic (physchem): > 500 µM
CCCCS(=O)(=O)Nc1ccc2cnn(-c3ccccc3)c2c1 [5a-6, N-(1-Phenyl-1H-indazol-6-yl)butane-1-sulfonamide]	> 100	MLM stability clint [1]: 1,370 μl/mi/mg protein; half-life (in vitro [2]; MLM stability t1/2): 0.505 min; half-life (in vitro [2]; [5]): > 3060 min; solubility kinetic (physchem): 33.7 µM (≈ 11.1 µg/mL)
CCCCS(=O)(=O)Nc1ccc2cnn(Cc3ccccc3)c2c1 [5a-7, N-(1-Benzyl-1H-indazol-6-yl)butane-1-sulfonamide]	> 100	MLM stability clint [1]: 241 μl/mi/mg protein; half-life (in vitro [2]; MLM stability t1/2): 2.88 min; half-life (in vitro [2]; [5]): > 3060 min; solubility kinetic (physchem): 33.8 µM (≈ 11.6 µg/mL)
Cn1ncc2ccc(NS(C)(=O)=O)cc21 [5a-8, N-(1-Methyl-1H-indazol-6-yl)methanesulfonamide]	> 100	–
CCS(=O)(=O)Nc1ccc2cnn(C)c2c1 [5a-9, N-(1-Methyl-1H-indazol-6-yl)ethanesulfonamide]	> 100	–
CCCS(=O)(=O)Nc1ccc2cnn(C)c2c1 [5a-10, N-(1-Methyl-1H-indazol-6-yl)propane-1-sulfonamide]	12.5 (≈ 3.17 µg/mL)	–
CC(C)S(=O)(=O)Nc1ccc2cnn(C)c2c1 [5a-11, N-(1-Methyl-1H-indazol-6-yl)propane-2-sulfonamide]	> 100	–
CCCCCS(=O)(=O)Nc1ccc2cnn(C)c2c1 [5a-12, N-(1-Methyl-1H-indazol-6-yl)pentane-1-sulfonamide]	0.2 (≈ 0.0563 µg/mL)	improvement in MIC/whole-cell activity over DG167 (M. tuberculosis H37Rv): 2 fold; CC50 (in vitro [3]): > 100 µM
CCCCCCS(=O)(=O)Nc1ccc2cnn(C)c2c1 [5a-13, N-(1-Methyl-1H-indazol-6-yl)hexane-1-sulfonamide]	> 100	CC50 (in vitro [3]): > 170 µM
Cn1ncc2ccc(NS(=O)(=O)CCCCC#N)cc21 [5a-14, 4-Cyano-N-(1-methyl-1H-indazol-6-yl)butane-1-sulfonamide]	3.1 (≈ 0.906 µg/mL)	CC50 (in vitro [3]): > 100 µM
COCCCCS(=O)(=O)Nc1ccc2cnn(C)c2c1 [5a-15, 4-Methoxy-N-(1-methyl-1H-indazol-6-yl)butane-1-sulfonamide]	> 100	MIC (M. tuberculosis H37Rv): >100 µM; CC50 (in vitro [3]): > 100 µM
COCCC(C)CCS(=O)(=O)Nc1ccc2cnn(C)c2c1 (stereo not drawn) [5a-16, 5-Methoxy-3-methyl-N-(1-methyl-1H-indazol-6-yl)pentane-1-sulfonamide]	> 100	–
CCCC(CC)S(=O)(=O)Nc1ccc2cnn(C)c2c1 (stereo not drawn) [5a-17, N-(1-Methyl-1H-indazol-6-yl)hexane-3-sulfonamide]	> 100	CC50 (in vitro [3]): > 100 µM
CCCC(C)S(=O)(=O)Nc1ccc2cnn(C)c2c1 (stereo not drawn) [5a-18, N-(1-Methyl-1H-indazol-6-yl)pentane-2-sulfonamide]	> 100	CC50 (in vitro [3]): > 100 µM
CC(C)CCCS(=O)(=O)Nc1ccc2cnn(C)c2c1 [5a-19, 4-Methyl-N-(1-methyl-1H-indazol-6-yl)pentane-1-sulfonamide]	> 100	–
Cc1ccc(S(=O)(=O)Nc2ccc3cnn(C)c3c2)cc1 [5a-20, 4-Methyl-N-(1-methyl-1H-indazol-6-yl)benzenesulfonamide]	50 (≈ 15.1 µg/mL)	–
Cn1ncc2ccc(NS(=O)(=O)Cc3ccccc3)cc21 [5a-21, N-(1-Methyl-1H-indazol-6-yl)-1-phenylmethanesulfonamide]	> 100	–
Cn1ncc2ccc(NS(=O)(=O)CCc3ccccc3)cc21 [5a-22, N-(1-Methyl-1H-indazol-6-yl)-2-phenylethane-1-sulfonamide]	> 100	CC50 (in vitro [3]): 19.8 µM
Cn1ncc2ccc(NS(=O)(=O)C3CC3)cc21 [5a-23, N-(1-Methyl-1H-indazol-6-yl)cyclopropanesulfonamide]	> 100	–

Compound	MIC (M. tuberculosis H37Rv; [4]) [µM]	further results
Cn1ncc2ccc(NS(=O)(=O)C3CCC3)cc21 [5a-24, N-(1-Methyl-1H-indazol-6-yl)cyclobutanesulfonamide]	> 100	–
Cn1ncc2ccc(NS(=O)(=O)C3CCCC3)cc21 [5a-25, N-(1-Methyl-1H-indazol-6-yl)cyclopentanesulfonamide]	> 100	–
Cn1ncc2ccc(NS(=O)(=O)C3CCCCC3)cc21 [5a-26, N-(1-Methyl-1H-indazol-6-yl)cyclohexanesulfonamide]	12.5 (≈ 3.67 µg/mL)	–
Cn1ncc2ccc(NS(=O)(=O)C3CCC(C(F)(F)F)CC3)cc21 (stereo not drawn) [5a-27, N-(1-Methyl-1H-indazol-6-yl)-4-(trifluoromethyl)cyclohexane-1-sulfonamide]	> 100	–
Cn1ncc2ccc(NS(=O)(=O)N3CCCCC3)cc21 [5a-28, N-(1-Methyl-1H-indazol-6-yl)piperidine-1-sulfonamide]	> 100	–
Cn1ncc2ccc(NS(=O)(=O)CC3CCCCC3)cc21 [5a-29, 1-Cyclohexyl-N-(1-methyl-1H-indazol-6-yl)methanesulfonamide]	> 100	–
[2H]C([2H])([2H])n1ncc2ccc(NS(=O)(=O)CCCCC)cc21 [5a-31, N-(1-(Methyl-d3)-1H-indazol-6-yl)pentane-1-sulfonamide]	0.2 (≈ 0.0569 µg/mL)	improvement in MIC/whole-cell activity over DG167 (M. tuberculosis H37Rv): 2 fold; CC50 (in vitro [3]): > 100 µM
[2H]C([2H])([2H])n1ncc2ccc(NS(=O)(=O)CCCCOC)cc21 [5a-32, 4-Methoxy-N-(1-(methyl-d3)-1H-indazol-6-yl)butane-1-sulfonamide]	> 100	CC50 (in vitro [3]): > 100 µM
CCCCNC(=O)Nc1ccc2cnn(C)c2c1 [5b-2, 1-Butyl-3-(1-methyl-1H-indazol-6-yl)urea]	> 100	–
CCCOC(=O)Nc1ccc2cnn(C)c2c1 [5d-2, n-propyl (1-methyl-1H-indazol-6-yl)carbamate]	> 100	CC50 (in vitro [3]): 6.7 µM
CCCCOC(=O)Nc1ccc2cnn(C)c2c1 [5d-3, Butyl (1-methyl-1H-indazol-6-yl)carbamate]	> 100	CC50 (in vitro [3]): 25 µM
CCCCS(=O)(=O)N(C)c1ccc2cnn(C)c2c1 [5e, N-Methyl-N-(1-methyl-1H-indazol-6-yl)butane-1-sulfonamide]	> 100	–
COc1nc2ccc(Br)cc2cc1[C@@H](c1ccccc1)[C@@](O)(CCN(C)C)c1cccc2ccccc12 [BDQ, bedaquiline]	1 (≈ 0.556 µg/mL)	–
CC[C@@H](CO)NCCN[C@@H](CC)CO [EMB, ethambutol]	0.78 (≈ 0.159 µg/mL)	–
CCc1cc(C(N)=S)ccn1 [ETH, ethionamide]	25 (≈ 4.16 µg/mL)	–
COc1c(N2C[C@@H]3CCCN[C@@H]3C2)c(F)cc2c(=O)c(C(=O)O)cn(C3CC3)c12 [Moxi, moxifloxacin]	0.03 (≈ 0.012 µg/mL)	–
O=[N+]([O-])c1cn2c(n1)OC[C@@H](OCc1ccc(OC(F)(F)F)cc1)C2 [PA824]	0.1 (≈ 0.0359 µg/mL)	–
CO[C@H]1/C=C/O[C@@]2(C)Oc3c(C)c(O)c4c(O)c(c(/C=N/N5CCN(C)CC5)c(O)c4c3C2=O)NC(=O)/C(C)=C\C=C\[C@H](C)[C@H](O)[C@@H](C)[C@@H](O)[C@@H](C)[C@H](OC(C)=O)[C@@H]1C [RIF, rifampin]	0.001 (≈ 0.000823 µg/mL)	–
CC(C)=CCC/C(C)=C/CNCCNC1C2CC3CC(C2)CC1C3 (stereo not drawn) [SQ109]	0.8 (≈ 0.264 µg/mL)	–

— article PMC6299220 (mBio, 2018)
